The text below walks through data of ChEMBL document CHEMBL5653615 (J Biol Chem, 2013).

The target of assay [1] is Calcium/calmodulin-dependent protein kinase type II subunit gamma (Homo sapiens) (UniProt Q13555). As to the kind of experiment: Inhibition of human CAMK2g at 18.6 nM by HotSpot assay relative to control.
Assay [2] concerns the target Tyrosine-protein kinase HCK (Homo sapiens) (UniProt P08631). Nature of the assay: Inhibition of human HCK at 18.6 nM by HotSpot assay relative to control.
Assay [3] addresses Serine/threonine-protein kinase SIK2 (Homo sapiens) (UniProt Q9H0K1). As to the kind of experiment: Inhibition of human SIK2 at 18.6 nM by HotSpot assay relative to control.
For assay [4], the target named is Dual specificity mitogen-activated protein kinase kinase 1 (Homo sapiens) (UniProt Q02750). Nature of the assay: Inhibition of human MEK1 at 18.6 nM by HotSpot assay relative to control.
In assay [5] the target is Receptor tyrosine-protein kinase erbB-4 (Homo sapiens) (UniProt Q15303). Nature of the assay: Inhibition of human ERBB4 at 18.6 nM by HotSpot assay relative to control.
Assay [6] concerns the target T1, Activin receptor type-1 (Homo sapiens) (UniProt Q04771).
T1 sequence (whole entry): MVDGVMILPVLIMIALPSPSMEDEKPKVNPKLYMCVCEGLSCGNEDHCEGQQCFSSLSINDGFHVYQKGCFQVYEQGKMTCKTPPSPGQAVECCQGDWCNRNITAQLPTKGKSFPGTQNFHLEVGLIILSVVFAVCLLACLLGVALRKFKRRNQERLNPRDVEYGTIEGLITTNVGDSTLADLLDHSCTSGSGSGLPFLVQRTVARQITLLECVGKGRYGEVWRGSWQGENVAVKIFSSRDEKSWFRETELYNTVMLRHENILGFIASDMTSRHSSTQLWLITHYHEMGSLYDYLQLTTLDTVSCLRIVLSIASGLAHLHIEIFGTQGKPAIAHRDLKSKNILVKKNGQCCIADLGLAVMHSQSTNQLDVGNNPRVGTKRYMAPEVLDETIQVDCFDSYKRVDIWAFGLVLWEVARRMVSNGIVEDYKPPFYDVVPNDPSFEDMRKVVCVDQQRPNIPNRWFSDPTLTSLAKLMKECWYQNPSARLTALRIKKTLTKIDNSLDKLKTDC
As to the kind of experiment: Inhibition of human ALK2 at 18.6 nM by HotSpot assay relative to control.

Assay [7] concerns the target Proto-oncogene tyrosine-protein kinase receptor Ret (Homo sapiens) (UniProt P07949). Nature of the assay: Inhibition of human RET at 18.6 nM by HotSpot assay relative to control.
For assay [8], the target named is Calcium/calmodulin-dependent protein kinase kinase 1 (Homo sapiens) (UniProt Q8N5S9). Nature of the assay: Inhibition of human CAMKK1 at 500 nM by HotSpot assay relative to control.
In assay [9] the target is Serine/threonine-protein kinase 25 (Homo sapiens) (UniProt O00506). Nature of the assay: Inhibition of human YSK1 at 1.82 nM by HotSpot assay relative to control.
In assay [10] the target is T2, Megakaryocyte-associated tyrosine-protein kinase (Homo sapiens) (UniProt P42679).
T2 sequence (whole entry): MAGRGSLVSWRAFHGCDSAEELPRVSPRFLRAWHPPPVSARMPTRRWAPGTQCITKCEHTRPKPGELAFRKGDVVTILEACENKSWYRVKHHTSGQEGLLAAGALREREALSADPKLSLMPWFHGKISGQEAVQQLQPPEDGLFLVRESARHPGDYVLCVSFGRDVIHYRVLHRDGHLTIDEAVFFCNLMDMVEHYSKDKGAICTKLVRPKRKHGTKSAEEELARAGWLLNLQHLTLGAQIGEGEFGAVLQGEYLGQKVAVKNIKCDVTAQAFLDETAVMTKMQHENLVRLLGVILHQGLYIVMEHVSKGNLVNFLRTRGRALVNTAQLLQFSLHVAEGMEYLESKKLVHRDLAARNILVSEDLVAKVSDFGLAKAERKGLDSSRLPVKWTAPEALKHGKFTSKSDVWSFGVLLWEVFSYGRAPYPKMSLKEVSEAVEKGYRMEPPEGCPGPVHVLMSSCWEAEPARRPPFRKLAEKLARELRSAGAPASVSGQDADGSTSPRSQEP
Nature of the assay: Inhibition of human CTK at 1.82 nM by HotSpot assay relative to control.

Assay [11] addresses T3, Serine/threonine-protein kinase 4 (Homo sapiens) (UniProt Q13043).
T3 sequence (whole entry): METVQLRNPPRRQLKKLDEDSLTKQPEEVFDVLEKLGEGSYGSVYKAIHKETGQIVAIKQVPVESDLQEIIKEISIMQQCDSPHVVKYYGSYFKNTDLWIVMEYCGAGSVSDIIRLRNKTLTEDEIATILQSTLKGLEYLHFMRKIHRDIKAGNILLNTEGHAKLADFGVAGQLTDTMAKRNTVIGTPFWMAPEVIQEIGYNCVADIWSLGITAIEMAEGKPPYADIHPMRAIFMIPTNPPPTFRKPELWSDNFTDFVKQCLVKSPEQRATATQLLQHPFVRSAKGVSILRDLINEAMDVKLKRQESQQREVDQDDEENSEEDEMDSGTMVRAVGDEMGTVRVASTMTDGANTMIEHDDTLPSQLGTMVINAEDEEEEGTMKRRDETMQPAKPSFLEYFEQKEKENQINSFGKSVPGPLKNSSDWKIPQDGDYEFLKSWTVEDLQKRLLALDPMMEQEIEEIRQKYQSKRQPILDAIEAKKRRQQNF
As to the kind of experiment: Inhibition of human STK4 at 1.82 nM by HotSpot assay relative to control.

Assay [12] deals with Platelet-derived growth factor receptor beta (Homo sapiens) (UniProt P09619). Nature of the assay: Inhibition of human PDGFRb at 1.82 nM by HotSpot assay relative to control.
In assay [13] the target is Tyrosine-protein kinase Lyn (Homo sapiens) (UniProt P07948). As to the kind of experiment: Inhibition of human LYN B at 1.82 nM by HotSpot assay relative to control.
The target of assay [14] is G protein-coupled receptor kinase 5 (Homo sapiens) (UniProt P34947). Nature of the assay: Inhibition of human GRK5 at 1.82 nM by HotSpot assay relative to control.
Assay [15] concerns the target T4, Testis-specific serine/threonine-protein kinase 1 (Homo sapiens) (UniProt Q9BXA7).
T4 sequence (whole entry): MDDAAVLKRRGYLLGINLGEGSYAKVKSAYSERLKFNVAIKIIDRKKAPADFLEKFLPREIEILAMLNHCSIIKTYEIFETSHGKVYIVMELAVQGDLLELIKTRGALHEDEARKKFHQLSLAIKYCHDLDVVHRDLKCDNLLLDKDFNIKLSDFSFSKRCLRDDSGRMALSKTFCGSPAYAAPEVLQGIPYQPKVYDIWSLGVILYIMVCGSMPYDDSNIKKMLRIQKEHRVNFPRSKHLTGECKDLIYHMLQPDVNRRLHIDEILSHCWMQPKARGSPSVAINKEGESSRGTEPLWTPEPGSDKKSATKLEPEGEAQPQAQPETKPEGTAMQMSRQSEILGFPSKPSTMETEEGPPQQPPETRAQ
As to the kind of experiment: Inhibition of human TSSK1 at 1.82 nM by HotSpot assay relative to control.

The target of assay [16] is Misshapen-like kinase 1 (Homo sapiens) (UniProt Q8N4C8). As to the kind of experiment: Inhibition of human MINK1 at 1.82 nM by HotSpot assay relative to control.
Misshapen-like kinase 1 (Homo sapiens), sequence (Q8N4C8 whole entry, looked up): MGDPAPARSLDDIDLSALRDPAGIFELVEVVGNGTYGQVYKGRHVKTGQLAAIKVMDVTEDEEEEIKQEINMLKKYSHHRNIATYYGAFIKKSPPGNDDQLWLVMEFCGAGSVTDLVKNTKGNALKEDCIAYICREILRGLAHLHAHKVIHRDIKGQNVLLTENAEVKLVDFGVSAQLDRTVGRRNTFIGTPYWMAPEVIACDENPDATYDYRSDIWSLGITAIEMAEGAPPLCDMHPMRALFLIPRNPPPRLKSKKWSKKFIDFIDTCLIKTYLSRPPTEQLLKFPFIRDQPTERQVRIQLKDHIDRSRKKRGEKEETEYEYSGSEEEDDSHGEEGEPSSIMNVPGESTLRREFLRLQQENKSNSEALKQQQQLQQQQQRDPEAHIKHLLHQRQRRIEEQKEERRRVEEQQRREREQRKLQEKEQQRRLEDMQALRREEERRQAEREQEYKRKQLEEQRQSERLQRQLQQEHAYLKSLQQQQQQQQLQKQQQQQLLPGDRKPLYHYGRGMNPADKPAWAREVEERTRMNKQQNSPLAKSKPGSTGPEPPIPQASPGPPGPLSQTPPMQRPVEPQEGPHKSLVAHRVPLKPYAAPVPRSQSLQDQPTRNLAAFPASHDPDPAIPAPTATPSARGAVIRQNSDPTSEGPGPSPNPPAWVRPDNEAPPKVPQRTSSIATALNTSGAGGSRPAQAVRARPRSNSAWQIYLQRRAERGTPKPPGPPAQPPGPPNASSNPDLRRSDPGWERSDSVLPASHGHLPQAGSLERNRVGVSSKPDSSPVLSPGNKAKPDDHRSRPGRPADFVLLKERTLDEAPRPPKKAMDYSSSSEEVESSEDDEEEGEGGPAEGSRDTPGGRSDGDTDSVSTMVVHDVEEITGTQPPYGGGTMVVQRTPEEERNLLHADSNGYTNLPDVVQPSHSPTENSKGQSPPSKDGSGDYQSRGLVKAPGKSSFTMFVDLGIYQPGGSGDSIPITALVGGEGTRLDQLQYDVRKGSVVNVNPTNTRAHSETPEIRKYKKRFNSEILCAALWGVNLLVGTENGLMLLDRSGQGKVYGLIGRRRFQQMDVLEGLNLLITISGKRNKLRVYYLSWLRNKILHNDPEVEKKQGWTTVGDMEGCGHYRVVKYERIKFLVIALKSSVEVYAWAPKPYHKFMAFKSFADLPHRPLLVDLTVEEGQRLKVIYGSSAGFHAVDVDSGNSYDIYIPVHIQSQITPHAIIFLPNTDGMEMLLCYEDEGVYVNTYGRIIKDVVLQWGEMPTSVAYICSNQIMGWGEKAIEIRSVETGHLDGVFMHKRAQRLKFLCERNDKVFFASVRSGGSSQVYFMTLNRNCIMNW

G protein-coupled receptor kinase 5 (Homo sapiens), sequence (P34947 whole entry, looked up): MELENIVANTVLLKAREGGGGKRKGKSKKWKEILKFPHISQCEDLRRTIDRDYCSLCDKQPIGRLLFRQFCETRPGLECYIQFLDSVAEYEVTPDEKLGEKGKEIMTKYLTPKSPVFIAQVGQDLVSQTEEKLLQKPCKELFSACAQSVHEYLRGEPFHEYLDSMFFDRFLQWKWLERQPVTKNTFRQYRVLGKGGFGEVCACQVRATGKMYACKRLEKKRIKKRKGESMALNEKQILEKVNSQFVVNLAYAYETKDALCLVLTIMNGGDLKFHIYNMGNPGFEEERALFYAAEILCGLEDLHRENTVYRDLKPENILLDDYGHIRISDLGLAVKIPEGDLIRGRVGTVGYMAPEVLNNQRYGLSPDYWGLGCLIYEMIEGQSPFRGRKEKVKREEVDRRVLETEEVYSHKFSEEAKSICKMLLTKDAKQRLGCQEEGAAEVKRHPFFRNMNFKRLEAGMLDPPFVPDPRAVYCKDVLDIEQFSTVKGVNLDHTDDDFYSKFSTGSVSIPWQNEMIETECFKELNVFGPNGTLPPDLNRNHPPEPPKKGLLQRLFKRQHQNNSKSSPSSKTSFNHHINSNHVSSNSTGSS
Serine/threonine-protein kinase SIK2 (Homo sapiens), sequence (Q9H0K1 whole entry, looked up): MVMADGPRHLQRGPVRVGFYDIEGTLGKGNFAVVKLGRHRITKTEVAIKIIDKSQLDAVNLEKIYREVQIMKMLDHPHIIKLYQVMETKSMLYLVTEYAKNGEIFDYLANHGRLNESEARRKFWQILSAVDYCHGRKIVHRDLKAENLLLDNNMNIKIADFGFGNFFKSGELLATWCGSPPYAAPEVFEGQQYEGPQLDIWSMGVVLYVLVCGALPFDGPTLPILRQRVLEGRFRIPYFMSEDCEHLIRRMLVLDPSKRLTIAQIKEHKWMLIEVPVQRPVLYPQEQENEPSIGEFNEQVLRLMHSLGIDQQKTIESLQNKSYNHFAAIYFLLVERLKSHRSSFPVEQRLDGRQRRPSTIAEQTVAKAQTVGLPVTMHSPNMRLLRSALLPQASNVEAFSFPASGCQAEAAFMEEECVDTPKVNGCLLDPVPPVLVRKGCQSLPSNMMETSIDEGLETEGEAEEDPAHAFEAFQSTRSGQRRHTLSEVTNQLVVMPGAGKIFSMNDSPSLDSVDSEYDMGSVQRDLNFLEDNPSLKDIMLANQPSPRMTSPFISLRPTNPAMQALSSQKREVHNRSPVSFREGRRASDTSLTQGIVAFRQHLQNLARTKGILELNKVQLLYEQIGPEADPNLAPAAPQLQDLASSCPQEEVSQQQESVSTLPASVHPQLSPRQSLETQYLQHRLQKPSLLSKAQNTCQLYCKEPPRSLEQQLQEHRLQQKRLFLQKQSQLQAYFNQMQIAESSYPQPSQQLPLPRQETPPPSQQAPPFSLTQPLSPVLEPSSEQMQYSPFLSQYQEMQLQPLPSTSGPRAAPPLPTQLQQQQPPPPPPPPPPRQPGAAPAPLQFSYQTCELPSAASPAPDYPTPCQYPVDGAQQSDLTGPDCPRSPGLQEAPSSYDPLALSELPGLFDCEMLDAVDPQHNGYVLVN
Tyrosine-protein kinase Lyn (Homo sapiens), sequence (P07948 2-512 limits assumed): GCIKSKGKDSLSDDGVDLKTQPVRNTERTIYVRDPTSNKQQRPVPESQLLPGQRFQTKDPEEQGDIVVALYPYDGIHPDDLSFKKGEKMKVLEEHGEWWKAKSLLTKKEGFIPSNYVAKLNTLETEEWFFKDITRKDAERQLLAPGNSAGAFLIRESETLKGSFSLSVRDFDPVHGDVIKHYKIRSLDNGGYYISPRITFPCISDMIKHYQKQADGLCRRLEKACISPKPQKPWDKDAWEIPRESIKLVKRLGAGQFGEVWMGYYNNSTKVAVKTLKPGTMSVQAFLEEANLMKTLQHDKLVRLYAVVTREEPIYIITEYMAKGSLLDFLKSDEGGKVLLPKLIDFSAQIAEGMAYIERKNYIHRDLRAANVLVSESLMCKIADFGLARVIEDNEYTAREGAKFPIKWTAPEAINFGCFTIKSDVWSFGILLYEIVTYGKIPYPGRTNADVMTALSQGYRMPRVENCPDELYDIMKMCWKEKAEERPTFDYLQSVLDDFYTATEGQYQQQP
Proto-oncogene tyrosine-protein kinase receptor Ret (Homo sapiens), sequence (P07949 whole entry): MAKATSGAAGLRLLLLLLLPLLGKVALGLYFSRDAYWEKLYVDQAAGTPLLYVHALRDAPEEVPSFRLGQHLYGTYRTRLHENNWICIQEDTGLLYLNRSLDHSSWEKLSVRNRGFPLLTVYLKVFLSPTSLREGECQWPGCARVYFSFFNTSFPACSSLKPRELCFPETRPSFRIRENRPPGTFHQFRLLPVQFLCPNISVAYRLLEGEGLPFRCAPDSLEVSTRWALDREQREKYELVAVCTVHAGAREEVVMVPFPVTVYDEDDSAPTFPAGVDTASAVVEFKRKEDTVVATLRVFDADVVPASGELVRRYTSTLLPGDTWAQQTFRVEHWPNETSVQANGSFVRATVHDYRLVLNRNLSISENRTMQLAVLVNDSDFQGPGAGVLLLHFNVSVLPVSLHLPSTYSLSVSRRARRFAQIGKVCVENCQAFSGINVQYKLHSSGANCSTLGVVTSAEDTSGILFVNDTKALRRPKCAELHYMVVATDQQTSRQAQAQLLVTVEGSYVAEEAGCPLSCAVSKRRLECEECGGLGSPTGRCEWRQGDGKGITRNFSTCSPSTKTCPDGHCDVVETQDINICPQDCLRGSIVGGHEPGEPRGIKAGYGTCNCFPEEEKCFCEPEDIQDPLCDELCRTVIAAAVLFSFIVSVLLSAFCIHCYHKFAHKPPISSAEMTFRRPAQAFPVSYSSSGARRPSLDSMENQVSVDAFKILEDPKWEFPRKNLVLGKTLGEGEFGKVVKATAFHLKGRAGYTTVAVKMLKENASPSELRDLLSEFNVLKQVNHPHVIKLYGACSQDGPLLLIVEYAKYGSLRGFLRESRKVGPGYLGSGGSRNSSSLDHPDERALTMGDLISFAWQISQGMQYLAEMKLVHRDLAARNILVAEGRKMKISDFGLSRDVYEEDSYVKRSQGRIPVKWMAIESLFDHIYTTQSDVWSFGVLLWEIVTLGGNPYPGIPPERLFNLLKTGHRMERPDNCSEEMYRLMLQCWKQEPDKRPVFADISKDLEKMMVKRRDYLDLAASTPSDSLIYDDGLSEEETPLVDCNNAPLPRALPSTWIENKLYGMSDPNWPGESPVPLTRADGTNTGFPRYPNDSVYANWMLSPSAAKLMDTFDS
Calcium/calmodulin-dependent protein kinase type II subunit gamma (Homo sapiens), sequence (Q13555 whole entry): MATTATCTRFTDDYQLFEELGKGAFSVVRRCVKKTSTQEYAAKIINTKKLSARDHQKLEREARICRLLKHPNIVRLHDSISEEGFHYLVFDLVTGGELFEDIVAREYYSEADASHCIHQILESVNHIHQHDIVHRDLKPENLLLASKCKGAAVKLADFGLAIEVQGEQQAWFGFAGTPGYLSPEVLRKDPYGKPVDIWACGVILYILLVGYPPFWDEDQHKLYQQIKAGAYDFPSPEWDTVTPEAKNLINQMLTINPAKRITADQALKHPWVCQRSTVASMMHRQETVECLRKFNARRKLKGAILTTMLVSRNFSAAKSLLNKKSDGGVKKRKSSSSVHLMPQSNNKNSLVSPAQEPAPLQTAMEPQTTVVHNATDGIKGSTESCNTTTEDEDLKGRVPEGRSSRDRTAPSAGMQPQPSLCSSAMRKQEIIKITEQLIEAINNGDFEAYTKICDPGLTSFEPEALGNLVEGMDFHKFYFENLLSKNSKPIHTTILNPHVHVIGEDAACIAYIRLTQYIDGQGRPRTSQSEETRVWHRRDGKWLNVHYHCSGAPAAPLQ

As a reminder, the inhibition is the change of the read-out against control, counted positive when it falls. For the compound `C[C@]1(O)C[C@@H](c2nc(-c3ccc4ccc(-c5ccccc5)nc4c3)c3c(N)nccn32)C1`, the inhibition in [1] was 2.76%; in [2] it was 10.3%; in assay [3], -8.94%; in assay [4], -8.63%; in assay [5] it was 2.92%; in assay [6], 1.44%. Also, in assay [7], the inhibition is 15.8%.

Turning to `Oc1n[nH]c2nnc(-c3c(-c4ccccc4)nn4ccccc34)cc12`, the inhibition in [8] is -9.31%.

As to `C[C@@]1(C(=O)Nc2ccc(F)nc2)CCCN1c1nc(Nc2cc(C3CC3)n[nH]2)c2cccn2n1`, the inhibition is 5.25% in assay [9]; -1.93% in assay [10]; 9.85% in [11]; 10.8% in [12]; 2.74% in assay [13]; 1.88% in [14]. Besides, the inhibition in assay [15] came out at 4.11%; in assay [16] it was 0.36%.
